Tests used:
Design in all cases: species or system mice (C57BL/6)
[1] = test system: specific IFN-γ-producing T cells; experiment: Example 2: mice vaccinated subcutaneously in the footpad 3 times, lymph node cells and splenocytes activated ex vivo with SIINFEKL, IFN-γ ELISpot assay; details: in combination with 100 μg poly-L-arginine; 100 μg peptide s.c. footpad days 0, 14, 28; one week after 3rd vaccination
Procedure: Groups of 4 mice (C57BL/6, female, 6 weeks of age, II-2^b) were injected subcutaneously in the footpad 3 times (days 0, 14, 28) as follows (dose 100 ug of peptide, molarity adapted; +100 μg poly-L-arginine per mouse):
Groups of 4 mice were vaccinated subcutaneously in the footpad 3 times as indicated. One week after the 3rd vaccination, popliteal lymph nodes and spleens were removed and lymph node cells and splenocytes were activated ex vivo with peptide SIINFEKL (“245”) to determine IFN-y-producing specific cells (ELISpot assay).

[2] = test system: SIINFEKL specific IFN-γ-producing T cells; experiment: Example 1: mice vaccinated subcutaneously in the flank 3 times, splenocytes activated ex vivo with SIINFEKL, IFN-γ ELISpot assay; details: for peptide specific T cells induced: without adding poly-L-arginine, 100 μg peptide s.c. flank days 0, 21, 28, spleen one week after third vaccination
Procedure: Groups of 4 mice (C75BL/6, femal, 8 weeks of age, H-2^b were injected subcutaneoulsy in the flank 3 times (days 0, 21 and 28) as follows (dose 100 μg of peptide, molarity adapted; +/−100 μg poly-L-arginine per mouse):
One week after the third vaccination spleens were removed and the splenocytes were activated ex vivo with peptide SIINFEKL (“245”) to determine IFN-y-producing specific cells (ELISpot assay).

[3] = test system: SIINFEKL-specific IFN-γ-producing T cells; experiment: Example 3: mice vaccinated subcutaneously in the hind footpads, spleen cells restimulated ex vivo, IFN-γ ELISpot assay; details: in combination with 100 μg poly-L-arginine; 100 μg peptide s.c. hind footpads; spleen 7 days after vaccination
Procedure: Groups of 4 mice (C57BL/6, female, 8 weeks of age, H-2^b) were injected subcutaneously into the hind footpads as follows (dose 100 μg of peptide, molarity adapted; +100 μg poly-L-arginine per mouse):
Groups of 4 mice were vaccinated subcutaneously in the hind footpads as indicated. 7 days after the vaccination single cell suspensions of spleens were prepared and cells were restimulated ex vivo to detect IFN-γ-producing cells via ELISpot assay.

Sequence: EDEDSIINFEKL [SIINFEKL with EDED added at the N-terminus]
- induction of specific IFN-γ-producing T cells in the draining (popliteal) lymph node (local response) [1]: high amount
- induction of specific IFN-γ-producing T cells in the spleen (systemic response) [1]: high amount

Sequence: FIFIFISIINFEKL [SIINFEKL with FIFIFI added at the N-terminus]
- peptide specific T cells induced [2]: about 100 per 1 million spleen cells

Sequence: FIFISIINFEKL [SIINFEKL with FIFI added at the N-terminus]
- peptide specific T cells induced [2]: about 100 per 1 million spleen cells
- induction of SIINFEKL-specific IFN-γ-producing T cells [3]: high numbers

Sequence: SIINFEKL [ovalbumin derived class I H-2Kb restricted peptide, unmodified wild type, reference compound]
- induction of T cells (general statement) ([2]; alone or in combination with an adjuvant like poly-L-arginine): weak inducer of T cells

Sequence: SIINFEKLFIFI [SIINFEKL with FIFI added at the C-terminus]
- induction of SIINFEKL-specific IFN-γ-producing T cells [3]: high numbers

— US20030095979A1, “Pharmaceutical preparations comprising modified peptides” (Cistem Biotechnologies GMBH, priority 2001, published 2003)
